Assays:
mice [1] = assay: Pentylenetetrazol-induced seizure (anticonvulsant action); type: in vivo, mice (OF 1); settings: Mus musculus, ip, i.p., 125 mg/kg pentylenetetrazol i.p.
Method: The purpose of this test which is carried out on mice is to determine whether the compounds of the invention, when given preventively by intraperitoneal route, are capable at certain doses of protecting some of the animals against the epileptic seizure produced by an adequate and predetermined dose of pentylenetetrazol which would be 100% fatal in the absence of the compound. The test was carried out on batches of 10 male OF 1 mice weighing about 25 g.

mice [2] = assay: Chimney test (tranquillizing properties); type: in vivo; settings: Mus musculus, ip; 50% failed to get out of the test-tube within 30 seconds
Method: This test enables two groups of factors to be evaluated namely neuromuscular factors (muscular strength, agility, coordination of movements) and psychological factors (curiosity, fright, flight instinct).
It was carried out on batches of 10 mice weighing about 25 g each. The compound to be studied was given to each batch by intraperitoneal route so that each batch received a higher dose than the preceding batch. The mice were placed, one after another, head first in a test-tube 30 cm long and calibrated in accordance with the size of the mouse so that by moving backwards the animal could get out of the tube in less than 30 seconds. The number of animals which were unable to do this was noted.

mice [3] = assay: Maximum electroshock seizure (anticonvulsant action); type: in vivo, mice (OF 1)
Method: This seizure is characterized in the mouse by extension of the back paws for 5 to 10 seconds. The extension is similar to that observed during the tonicoclonic seizures provoked by chemical convulsants such as pentylenetetrazol or strychnine.
The test was carried out on batches of 10 mice of the OF 1 strain weighing about 22 g. […] Fifteen minutes later, each animal received an electric shock of twice threshold intensity (about 60 volts).
This latter value is indicated by the symbol HD50 or hypnotic dose 50 and the efficacy index by the fraction: [formula]

[4] = Acute toxicity (LD50), technique of Karber and Behrens; settings: mouse, in vivo, ip
Method: (§1) The LD50 was determined on the mouse by intraperitonel route using the technique of KARBER and BEHRENS.

mouse = assay: as above; settings: intraperitoneal LD50, in words
Method: as §1

mice [5] = assay: Evasion test (tranquillizing properties); type: in vivo; settings: for Total number of exits per batch: batch of 28 mice; for Average time before first exit: controls 14
Method: This test enables the exploring capacities of mice to be studied. A parallelepipedic lidless plywood box is used which contains an inclined plane, also of plywood, covered with a fine mesh. A horizontal datum line is marked on the inclined plane 2 cm below the point at which the plane bears on the box edge. The whole device is placed in an artificially lit room away from all shrill noise. Any crossing, in an upward direction, by a mouse of the datum line is termed an "exit".
The test was carried out on batches of 28 mice weighing about 22 g. The animals of each batch received an intraperitoneal dose of the compound to be studied so that each batch received a higher dose than the preceding batch.
Thirty minutes after administration of the compound, the animals were placed in the box by batches and kept at the bottom for 10 seconds by a movable board. The average length or time after which the first exit occurred was noted as well as the total number of exits per batch every minute for 5 minutes. The same details were also recorded for a control batch which had not received the compound. The following results were obtained with the preferred compound of the invention namely sodium tri-n-propylacetate: […]

mice [6] = assay: Posture reflex (hypnotic properties); type: in vivo, mice (OF 1); settings: Mus musculus, ip, i.p., read-out: HD50, loss of posture reflex
Method: Male mice of the OF 1 strain, weighing about 25 g. were divided into batches of 10. The animals of each batch were given an intraperitoneal dose of the compound to be studied so that each batch received a higher dose than the preceding batch.
The numbers of animals which lost the reflex at various times after administration were noted.
In this way, the HD50 at different times after administration was determined i.e. the dose of the compound under study which caused 50% of the animals to lose the posture reflex at a given time after administration.

mice [7] = assay: Traction test (myorelaxant properties); type: in vivo, mice (OF 1); settings: for Number of animals which have lost the traction reflex: groups of 10; for ED50: Mus musculus, ip, read-out: ED50, loss of traction reflex
Method: This test enables sense of balance as well as muscular tonus and strength to be evaulated.
The test is carried out on groups of 10 male mice of the OF 1 strain weighing about 25 g. It consists of suspending the mice by the front paws to a horizontally stretched wire. Note is first taken of the time required by a group of control animals to effect recovery i.e. to place at least one of their back paws on the wire.

[8] = 0.25 h, 15 min. after administration
[9] = 0.5 h, 30 min. after administration

`CCCC(CCC)(CCC)C(=O)[O-].[Na+]` [Sodium tri-n-propylacetate, sodium tri-n-propylacetate] gave an ED50 (mice [1]; 0.125 h, 7 min. 30 sec after administration) of 78 mg/kg, an ED50 (mice [1]; [8]) of 66 mg/kg and an ED50 (mice [1]; [9]) of 110 mg/kg. For the same molecule, the ED50 (mice [2]) was 72 mg/kg, the ED50 (mice [3]; Mus musculus, ip, 0.25 h, i.p., 15 min after administration, protection of 50% against tonic seizures) was 130 mg/kg and the “Efficacy index (HD50 compared with ED50)” value (mice [3]; electroshock ED50 versus hypnotic dose 50) was 1.0. The LD50 [4] was 327 mg/kg, the selectivity ratio [4] was 20 to 80 and the “Acute toxicity compared with diazepam” value (mouse) was “much less toxic than diazepam”. For the same molecule, the “Total number of exits per batch” value (mice [5]; 50 mg/kg i.p., 1 min.) was 54, the “Total number of exits per batch” value (mice [5]; 50 mg/kg i.p., 2 min.) was 44 and the “Total number of exits per batch” value (mice [5]; 50 mg/kg i.p., 3 min.) was 43. The “Total number of exits per batch” value (mice [5]; 50 mg/kg i.p., 4 min.) was 41, the “Total number of exits per batch” value (mice [5]; 50 mg/kg i.p., 5 min.) was 28 and the “Average time before first exit” value (mice [5]; 50 mg/kg i.p.) was 25 s. For the same molecule, the “Total number of exits per batch” value (mice [5]; 75 mg/kg i.p., 1 min.) was 44, the “Total number of exits per batch” value (mice [5]; 75 mg/kg i.p., 2 min.) was 37 and the “Total number of exits per batch” value (mice [5]; 75 mg/kg i.p., 3 min.) was 31. For the same molecule, the “Total number of exits per batch” value (mice [5]; 75 mg/kg i.p., 4 min.) was 34, the “Total number of exits per batch” value (mice [5]; 75 mg/kg i.p., 5 min.) was 28 and the “Average time before first exit” value (mice [5]; 75 mg/kg i.p.) was 21 s. It also gave an ED50 (mice [6]; [8]) of 120 mg/kg, an ED50 (mice [6]; [9]) of 130 mg/kg and an ED50 (mice [6]; 0.75 h, 45 min. after administration) of 150 mg/kg. For the same molecule, the ED50 (mice [6]; 1 h, 60 min. after administration) was 200 mg/kg, the “Number of animals which have lost the traction reflex” value (mice [7]; 20 mg/kg i.p., 15 min.) was 1 and the “Number of animals which have lost the traction reflex” value (mice [7]; 20 mg/kg i.p., 30 min.) was 2. For the same molecule, the “Number of animals which have lost the traction reflex” value (mice [7]; 20 mg/kg i.p., 45 min.) was 0, the “Number of animals which have lost the traction reflex” value (mice [7]; 50 mg/kg i.p., 15 min.) was 0 and the “Number of animals which have lost the traction reflex” value (mice [7]; 50 mg/kg i.p., 30 min.) was 1. The “Number of animals which have lost the traction reflex” value (mice [7]; 50 mg/kg i.p., 45 min.) was 2, the “Number of animals which have lost the traction reflex” value (mice [7]; 75 mg/kg i.p., 15 min.) was 3 and the “Number of animals which have lost the traction reflex” value (mice [7]; 75 mg/kg i.p., 30 min.) was 0. The “Number of animals which have lost the traction reflex” value (mice [7]; 75 mg/kg i.p., 45 min.) was 1, the “Number of animals which have lost the traction reflex” value (mice [7]; 100 mg/kg i.p., 15 min.) was 8 and the “Number of animals which have lost the traction reflex” value (mice [7]; 100 mg/kg i.p., 30 min.) was 1. For the same molecule, the “Number of animals which have lost the traction reflex” value (mice [7]; 100 mg/kg i.p., 45 min.) was 0, the “Number of animals which have lost the traction reflex” value (mice [7]; 150 mg/kg i.p., 15 min.) was 10 and the “Number of animals which have lost the traction reflex” value (mice [7]; 150 mg/kg i.p., 30 min.) was 10. The “Number of animals which have lost the traction reflex” value (mice [7]; 150 mg/kg i.p., 45 min.) was 9, the ED50 (mice [7]; 0.25 h) was 80 mg/kg and the ED50 (mice [7]; 0.5 h) was 110 mg/kg. For the same molecule, the ED50 (mice [7]; 0.75 h) was 130 mg/kg, the “Time of maximum myorelaxant activity after administration” value (mice [7]; intraperitoneal) was 15 min and the “Activity index: NTD50/ED50” value (mice [7]; rota rod NTD50 / traction ED50, 30 minutes after administration) was 1.1.

Source: patent US3958011A, “Compositions of tri-n-propylacetic acid and salts thereof and treatment of neurological disorders with such compositions” (priority 1972, dated 1976)
